Laboratory results reported in US20130129675A1, “INTERFERON THERAPIES IN COMBINATION WITH BLOCKADE OF STAT3 ACTIVATION” (BOARD OF REGENTS, THE UNIVERSITY OF TEXAS SYSTEM, priority 2009, published 2013).

How the values were obtained:
[1] = tested on: intracerebral B16 melanoma / LMD; assay: Etiology of death (LMD or tumor progression) in intracerebral B16 model; format: in vivo, C57BL/6J mice; conditions: for animals with LMD at death: autopsy at treatment failure, control 75%
Description: Both the control group (n=8) and in those treated with a sub-therapeutic dose of WP1193 (n=9) had macroscopic evidence of LMD, 75% and 67%, respectively, (Data not shown). In contrast, in those mice treated with IFN-α (n=6) or the combination of IFN-α and WP1193 (n=4), only 17% in the former and none of the animals treated with the combination died of LMD (FIG. 5). As would be expected, in a sub-analysis within each treatment group, mice that developed LMD died sooner than did those that died of tumor. Specifically, in the control group, median survival was 16.7±0.7 days in those mice that developed LMD and 18.5±1.5 days in those that died of tumor. Furthermore, in the sub-therapeutic WP1193 group, median survival was 17.7±0.3 days in mice that developed LMD and 20±2.1 days in those that died of tumor. In contrast, within the IFN-α treatment group, the median survival of mice with progressive tumor was 25.8±2.5 days, which was further increased to 29.7±5.5 days in the combination treatment group. Within individual treatment groups there was insufficient power to draw statistically meaningful conclusions; however when we assessed all mice who died of LMD, the median survival was 16.9±0.4 days compared with 24.7±2 days for mice dying of tumor progression (P=0.0006), indicating this model system conforms to the negative prognostic influence of LMD observed in human patients.

B16 cells = assay: MHC I, MHC II and NK cell ligands on B16 melanoma cells (flow cytometry); format: cell-based, murine; conditions: WP1193 2 μM, IFN-α 20 ng/ml; for MHC I expression on B16: 24 hours (FIG. 6A); for surface H60, Rae-1 and CD155 (NK ligands) on B16: 24 hours (FIG. 6B)
Experimental: To ascertain the MHC I, MHC II, and NK ligands expressed on melanoma cells, B16 cells were seeded at a density of 2×10^6 cells/well in 24-well culture plates and cultured with the RPMI 1640 medium in the absence or presence of WP1193 (2 μM) and/or INF-α (20 ng/ml) for 24 hours. Afterwards, the cells were harvested and washed twice, and 10^6 cells in duplicate were Fc blocked with purified rat anti-mouse CD16/CD32 (BD Biosciences) for 15 minutes at room temperature. The B16 cells were washed and then stained for approximately 30 minutes at 4° C. with FITC-conjugated rat anti-mouse MHC I mAb (Abeam, Cambridge, Mass.), PE-conjugated rat anti-mouse MHC Class II mAb (Abeam), FITC-conjugated rat anti-mouse Rae-1 mAb (R&D Systems), APC-conjugated rat anti-mouse H60 mAb (R&D Systems) or PE-conjugated rat anti-mouse CD155 mAb (Biolegend). Negative control cells were stained with the corresponding isotypes. Following incubation, the cells were washed twice with FACS buffer and then analyzed with a BD FACSCalibur with gates set for viable cells.
Because we observed NK and CD8+ T cell-mediated anti-tumor cytotoxicity were enhanced with combinational therapy, to ascertain if either IFN-α, WP1193 or both were augmenting the expression of MHC or NK activating receptors or their ligands, splenocytes and B16 cells were treated with RPMI 1640 medium (control), WP1193 (2 μM), IFN-α (20 ng/ml), or IFN-α (20 ng/ml)+WP1193 (2 μM) for 24 hours. The NK-activating ligands (Rae-1, H60 and CD155) and MHC (I and II) on B16 cells and the NK-activating receptors (NKG2D, KLRD1, NKp46 and DNAM-1) on NK1.1+ NK cells were analyzed by flow cytometric analysis.

[2] = tested on: p-STAT3 (Tyr705) in splenocytes; assay: p-STAT3 immunoblotting in splenocytes; format: cell-based, C57BL/6J mice; conditions: 2 hours, 5 and 10 μM (FIG. 3B)
Experimental: Immunoblotting analysis. Murine melanoma B16 cells and splenocytes were used for protein isolation and immunoblotting analysis as described below. B16 cells were seeded at a density of 2×10^6 cells/well in 6-well culture plates and incubated at 37° C., in an atmosphere containing 5% CO2, with the RPMI 1640 medium overnight. Afterward, B16 cells were cultured in the absence or presence of WP1193 (5 μM, 10 μM). After 3.5 hours, the B16 cells were further cultured in the absence or presence of 20 ng/ml of IFN-α for 30 minutes. For the splenocyte preparation, spleens from two 4- to 6-week-old female mice were harvested and disassociated into a single cell suspension. […] The supernatants were collected and quantified for protein content. […]
Autoradiography of the membranes was performed using Amersham ECL Western blotting detection reagents (Amersham Biosciences). The densities of the protein bands compared with the β-actin protein control were measured with the Image J program provided by the NIH.
In this experiment, B16 cells and splenocytes isolated from C57BL/6J mice and were incubated with either the medium, medium supplemented with titrated WP1193, medium supplemented with IFN-α, or medium supplemented with both IFN-α and WP1193. […] Semi-quantitative densitometry was used to determine the relative levels of p-STAT3 to STAT3 and β-actin.

[3] = tested on: STAT3 in HaCaT keratinocytes; assay: pSTAT3 level in HaCaT keratinocytes (MSD chemiluminescent detection); format: cell-based, human
Experimental: Prior to experiments, the DMEM medium was changed to KGM-SFM containing rEGF and bovine pituitary extract for 12 hours, and the cells then exposed to various stimuli for 30 minutes. Cell lysates were extracted in IP lysis buffer were diluted in MSD extraction buffer and 25 uL of the cell lysate containing 10 ug protein was used in the analysis via chemiluminescent detection (MSD Technology). To test for inhibition by WP1220 (WP), cells were pre-incubated with WP1220 prior to the addition of IFN α.

[4] = sub-analysis within treatment group

Compound | animals with LMD at death [1] [%] | median survival in mice that developed LMD [1, 4] [days] | median survival in mice that died of tumor [1, 4] [days] | MHC I expression on B16 (B16 cells) | surface H60, Rae-1 and CD155 (NK ligands) on B16 (B16 cells) | phosphorylation of p-STAT3 [2] | STAT3 activation in keratinocytes [3] | Relative level of pSAT3 ([3]; HaCaT cells, stimuli for 30 minutes) | pSTAT3 stimulation (Table E8) ([3]; SFM + IFN α, no inhibitor)
N#C/C(=C\c1cccc(Br)n1)C(=O)N[C@H](c1ccccc1)C1CC1 [WP1193, (S,E)-3-(6-bromopyridin-2-yl)-2-cyano-N-(cyclopropyl(phenyl)methyl)acrylamide] | 67 | 17.7 ± 0.3 | 20 ± 2.1 | not further enhanced | do not alter the receptor density of the NK ligands | inhibits the phosphorylation of p-STAT3 | – | – | –
IFN-α | 17 | – | 25.8 ± 2.5 | enhanced | do not alter the receptor density of the NK ligands | – | potently induce STAT3 activation | +++++ (+++++=400-500 fold) | +++++ (+++++=10,000-6,000)
